For 11 compounds, IC50 results are on record in PubChem BioAssay AID652169 (The Scripps Research Institute Molecular Screening Center, 2013).

The source made the active and inactive calls. How the calls were made is not given here. Bounds are passed on as bounds.

The subject of this assay is MTT cytotoxicity, absorbance 620 nm. In words: cytotoxicity by MTT viability readout, late-stage follow-up, cytotoxicity control for NOD2-RIPK2 interaction inhibitor project, cell-based, absorbance (AID 652169).
For `O=[N+]([O-])c1cc(S(=O)(=O)N2CCCCCC2)ccc1F`, the IC50 is > 10 µM (inactive). `Cc1cc(S(=O)(=O)N2CCCCCC2)ccc1F`: the IC50 is > 10 µM (inactive). With `Cc1ccc(C(C[N+](=O)[O-])n2nc(C)cc2C)cc1` (stereo unspecified) the figure was > 10 µM (inactive); with `Cc1nc([N+](=O)[O-])c(Br)n1Cc1ccccc1`, > 10 µM (inactive); with `O=S(=O)(c1ccccc1)N1CCCCCC1`, > 10 µM (inactive). Under `O=S(=O)(c1ccc(F)cc1)N1CCCCCC1` stands > 10 µM (inactive); under `Cc1ccc(S(=O)(=O)N2CCCCCC2)cc1[N+](=O)[O-]`, > 10 µM (inactive).

As to `Cc1nc([N+](=O)[O-])c(Br)n1Cc1ccc(Cl)c(Cl)c1`, the IC50 is > 10 µM (inactive). As to `COc1ccc(C(C[N+](=O)[O-])n2nc(C)cc2C)cc1` (stereo unspecified), the IC50 was > 10 µM (inactive). Take `Cc1ncc([N+](=O)[O-])n1Cc1ccc(Cl)c(Cl)c1`: the IC50 is > 10 µM (inactive). With `O=[N+]([O-])c1cccc(S(=O)(=O)N2CCCCCC2)c1` the figure was > 10 µM (inactive).

As a reminder, the IC50 is the midpoint of a concentration-inhibition curve.
